The source of these data is patent US9242996B2 (Novartis AG, priority 2013, dated 2016).

The target of this assay is activated ERK2 (Homo sapiens (Human), UniProt P28482). As to the kind of experiment: Activated ERK2 kinase assay, ERK2 New conditions (AlphaScreen, ERKtide phosphorylation). The note with it: 0.25 nM ERK2, 200 nM ERKtide peptide, 35 μM ATP, 30 min preincubation. The class given is biochemical. The protocol: The assay is carried out in 50 mM HEPES [pH 7.5], 5 mM MgCl2, 1 mM DTT, 0.01% Tween-20, 0.05% BSA using 0.25 nM ERK2, 200 nM ERKtide peptide and 35 μM ATP (all concentrations are final in the reaction) in a total volume of 10.25 μL. […] Compound dilution series are prepared in 100% DMSO. ERK2 is preincubated with compounds for 30 minutes at ambient temperature. Reaction is initiated by addition of a substrate cocktail of ERKtide peptide and ATP and is allowed to proceed for 2-3 hours at ambient temperature. Reaction is terminated by addition of 10 μL of a 2× stop buffer consisting of 100 mM Tris-Cl [pH 7.5], 25 mM EDTA, 0.01% Tween 20, 10 μg/mL of AlphaScreen Protein A Acceptor Beads, 10 μg/mL of Streptavidin Donor Beads (PerkinElmer, Waltham, Mass.), and 1.4 μg/mL phospho-EGF Receptor (Thr669) antibody (Cat #3056, Cell Signaling Technology, Danvers, Mass.). Terminated reactions are read, after overnight incubation in the dark, on an EnVision Multilabel Plate Reader (PerkinElmer, Waltham, Mass.), with excitation and emission wavelengths set to 680 nm and 570 nm, respectively. IC50 values are determined using a four-parameter fit.
Sequence of activated ERK2 (P28482 whole entry): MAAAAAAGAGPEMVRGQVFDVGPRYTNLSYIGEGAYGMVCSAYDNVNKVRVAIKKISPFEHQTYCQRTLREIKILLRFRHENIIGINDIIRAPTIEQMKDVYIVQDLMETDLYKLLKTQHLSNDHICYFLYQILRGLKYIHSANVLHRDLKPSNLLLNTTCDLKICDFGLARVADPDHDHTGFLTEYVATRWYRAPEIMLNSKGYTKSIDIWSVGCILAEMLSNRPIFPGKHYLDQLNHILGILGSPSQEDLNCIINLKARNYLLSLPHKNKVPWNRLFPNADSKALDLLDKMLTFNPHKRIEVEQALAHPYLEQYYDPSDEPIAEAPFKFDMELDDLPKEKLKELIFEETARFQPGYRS
For orientation: Bead proximity is the source of the signal in Alpha formats.
Turning to `Nc1nccnc1-c1ccc(C(=O)NCc2ccccc2)cc1` [Example 46, 4-(3-aminopyrazin-2-yl)-N-benzylbenzamide], the concentration for half-maximal inhibition (IC50) (commonly the midpoint of a concentration-inhibition curve) stood at 4790 nM.

As for `C[C@@H](NC(=O)c1ccc(-c2nc(C3CCOCC3)cnc2N)cc1F)c1ccccc1` [Example 47, (R)-4-(3-amino-6-(tetrahydro-2H-pyran-4-yl)pyrazin-2-yl)-2-fluoro-N-(1-phenylethyl)benzamide], the IC50 came out at 0.818 nM.

As for `Nc1ncc(C2CCOCC2)nc1-c1ccc(C(=O)N[C@@H]2CCCN(S(=O)(=O)c3ccccc3F)C2)c(F)c1` [Example 48, (R)-4-(3-amino-6-(tetrahydro-2H-pyran-4-yl)pyrazin-2-yl)-2-fluoro-N-(1-((2-fluorophenyl)sulfonyl)piperidin-3-yl)benzamide], the IC50 was 122 nM.

For `Nc1ncc(C2CCOCC2)nc1-c1ccc(C(=O)N[C@@H]2CCCN(S(=O)(=O)c3ccccc3)C2)c(F)c1` [Example 49, (R)-4-(3-amino-6-(tetrahydro-2H-pyran-4-yl)pyrazin-2-yl)-2-fluoro-N-(1-(phenylsulfonyl)piperidin-3-yl)benzamide], the IC50 was 45.9 nM.

On to `CN(C(=O)c1ccc(-c2nc(C3CCOCC3)cnc2N)cc1F)[C@H](CO)c1ccccc1` [Example 53, (S)-4-(3-amino-6-(tetrahydro-2H-pyran-4-yl)pyrazin-2-yl)-2-fluoro-N-(2-hydroxy-1-phenylethyl)-N-methylbenzamide], for which 12.3 nM corresponded to half-maximal inhibition (IC50).

Turning to `Nc1ncc(C2CCOCC2)nc1-c1ccc(C(=O)N2COC[C@@H]2c2ccccc2)cc1` [Example 54, (S)-(4-(3-amino-6-(tetrahydro-2H-pyran-4-yl)pyrazin-2-yl)phenyl)(4-phenyloxazolidin-3-yl)methanone], the midpoint of inhibition, the IC50, lay at 107 nM.

In turn, `CS(=O)(=O)N1CCC(c2cnc(N)c(-c3ccc(C(=O)N[C@H](CO)c4ccccc4)c(F)c3)n2)CC1` [Example 56, (S)-4-(3-amino-6-(1-(methylsulfonyl)piperidin-4-yl)pyrazin-2-yl)-2-fluoro-N-(2-hydroxy-1-phenylethyl)benzamide] showed a half-maximal inhibitory concentration (IC50) of 3.89 nM. This IC50 lies about 28-fold lower than the previous one.

`C[C@@H](NC(=O)c1ccc(-c2nc(C3CCN(S(C)(=O)=O)CC3)cnc2N)cc1F)c1cccc(Cl)c1` [Example 57] returned a concentration for half-maximal inhibition (IC50) of 1.14 nM.

Take `COC(=O)N1CCC(c2cnc(N)c(-c3ccc(C(=O)N[C@H](CO)c4ccccc4)c(F)c3)n2)CC1` [Example 58, (S)-methyl 4-(5-amino-6-(3-fluoro-4-((2-hydroxy-1-phenylethyl)carbamoyl)phenyl)pyrazin-2-yl)piperidine-1-carboxylate]: the IC50 is 3.61 nM.

The compound `COC(=O)N1CCC(c2cnc(N)c(-c3ccc(C(=O)N[C@H](CO)c4cccc(Cl)c4)c(F)c3)n2)CC1` [Example 59, (S)-methyl 4-(5-amino-6-(4-((1-(3-chlorophenyl)-2-hydroxyethyl)carbamoyl)-3-fluorophenyl)pyrazin-2-yl)piperidine-1-carboxylate] came in with an IC50 of 0.35 nM.

In the case of `CC(=O)N1CCC(c2cnc(N)c(-c3ccc(C(=O)N[C@H](CO)c4ccccc4)c(F)c3)n2)CC1` [Example 60, (S)-4-(6-(1-acetylpiperidin-4-yl)-3-aminopyrazin-2-yl)-2-fluoro-N-(2-hydroxy-1-phenylethyl)benzamide], 12.4 nM corresponded to half-maximal inhibition (IC50).

Compound `CC(=O)N1CCC(c2cnc(N)c(-c3ccc(C(=O)N[C@H](CO)c4cccc(Cl)c4)c(F)c3)n2)CC1` [Example 61, (S)-4-(6-(1-acetylpiperidin-4-yl)-3-aminopyrazin-2-yl)-N-(1-(3-chlorophenyl)-2-hydroxyethyl)-2-fluorobenzamide] displayed an IC50 of 1.24 nM.

Regarding `COC(=O)N1CCC(c2cnc(N)c(-c3ccc(C(=O)N[C@H](CO)c4ccccc4)c(F)c3)c2)C1` (stereo partly drawn) [Example 62, methyl 3-(6-amino-5-(3-fluoro-4-(((S)-2-hydroxy-1-phenylethyl)carbamoyl)phenyl)pyridin-3-yl)pyrrolidine-1-carboxylate], the half-maximal inhibitory concentration (IC50) was 64.1 nM. This IC50 lies about 52-fold higher than the previous one.

The compound `CS(=O)(=O)N1CCC(c2cnc(N)c(-c3ccc(C(=O)N[C@H](CO)c4ccccc4)c(F)c3)c2)C1` (stereo partly drawn) [Example 63, 4-(2-amino-5-(1-(methylsulfonyl)pyrrolidin-3-yl)pyridin-3-yl)-2-fluoro-N-((S)-2-hydroxy-1-phenylethyl)benzamide] registered an IC50 of 23.3 nM.

Compound `CCOCCc1cnc(N)c(-c2ccc(C(=O)N[C@H](CO)c3ccccc3)c(F)c2)n1` [Example 72, (S)-4-(3-amino-6-(2-ethoxyethyl)pyrazin-2-yl)-2-fluoro-N-(2-hydroxy-1-phenylethyl)benzamide] had an IC50 of 177 nM.

The compound `Nc1ncc(C2CCS(=O)(=O)CC2)cc1-c1ccc(C(=O)NCc2ccccc2)c(F)c1` [Example 78, 4-(2-amino-5-(1,1-dioxidotetrahydro-2H-thiopyran-4-yl)pyridin-3-yl)-N-benzyl-2-fluorobenzamide] had an IC50 of 172 nM.

The compound `CS(=O)(=O)c1cccc(CNC(=O)c2ccc(-c3nc(C4CC4)cnc3N)cc2F)c1` [Example 99, 4-(3-amino-6-cyclopropylpyrazin-2-yl)-2-fluoro-N-(3-(methylsulfonyl)benzyl)benzamide] came in with an IC50 of 12.1 nM.

Turning to `C[C@@H]1C[C@H](c2cnc(N)c(-c3ccc(C(=O)NCc4cccc(S(C)(=O)=O)c4)cc3)n2)CCO1` [Example 100, 4-(3-amino-6-((2R,4R)-2-methyltetrahydro-2H-pyran-4-yl)pyrazin-2-yl)-N-(3-(methylsulfonyl)benzyl)benzamide], inhibition was half-maximal at 7.76 nM (IC50).

As for `C[C@H]1C[C@@H](c2cnc(N)c(-c3ccc(C(=O)NCc4cccc(S(C)(=O)=O)c4)cc3)n2)CCO1` [Example 101, 4-(3-amino-6-((2S,4S)-2-methyltetrahydro-2H-pyran-4-yl)pyrazin-2-yl)-N-(3-(methylsulfonyl)benzyl)benzamide], the midpoint of inhibition, the IC50, lay at 76.9 nM.

`COC1CCC(c2cnc(N)c(-c3ccc(C(=O)NCc4ccccc4)c(F)c3)n2)C1` (stereo not drawn) [Example 104, 4-(3-amino-6-(3-methoxycyclopentyl)pyrazin-2-yl)-N-benzyl-2-fluorobenzamide] came in with an IC50 of 191 nM.

The compound `Cn1cc(-c2cnc(N)c(-c3ccc(C(=O)N[C@H](CO)c4ccccc4)c(F)c3)c2)cn1` [Example 107, (S)-4-(2-amino-5-(1-methyl-1H-pyrazol-4-yl)pyridin-3-yl)-2-fluoro-N-(2-hydroxy-1-phenylethyl)benzamide] came in with an IC50 of 1.16 nM.

Consider `Nc1ncc(C2CCOCC2)nc1-c1ccc2c(c1)OCCN(Cc1ccccc1)C2=O` [Example 109, 8-(3-amino-6-(tetrahydro-2H-pyran-4-yl)pyrazin-2-yl)-4-benzyl-3,4-dihydrobenzo[f][1,4]oxazepin-5(2H)-one], for which the IC50 was determined as 5.81 nM. This IC50 is about 5-fold higher than that of the compound before.

On to `Nc1ncc(C2CCS(=O)(=O)CC2)cc1-c1ccc2c(c1)OCCN(Cc1ccccc1)C2=O` [Example 110, 8-(2-amino-5-(1,1-dioxidotetrahydro-2H-thiopyran-4-yl)pyridin-3-yl)-4-benzyl-3,4-dihydrobenzo[f][1,4]oxazepin-5(2H)-one], for which the IC50 is 1000 nM.

`Nc1ncc(CCO)nc1-c1ccc(C(=O)N[C@H](CO)c2ccccc2)c(F)c1` [Example 111, (S)-4-(3-amino-6-(2-hydroxyethyl)pyrazin-2-yl)-2-fluoro-N-(2-hydroxy-1-phenylethyl)benzamide] registered an IC50 of 30.8 nM.
